ChEMBL document CHEMBL2069221, “Hybrid molecules of carvacrol and benzoyl urea/thiourea with potential applications in agriculture and medicine” (Bioorg Med Chem Lett, 2012)
Converted amounts (≈) assume the structure as drawn. The source made the active and inactive calls. The rule behind the calls is not given here.

Tests used:
[1] = test system: Candida albicans; assay: Antifungal activity against Candida albicans NCIM 3557 after 48 hrs by microbroth dilution method; assay type: functional
[2] = test system: Cryptococcus neoformans; assay: Antifungal activity against Cryptococcus neoformans NCIM 3542 after 48 hrs by microbroth dilution method; assay type: functional
[3] = test system: Dysdercus koenigii; assay: Insecticidal activity against 5th instar nymph of Dysdercus koenigii assessed as mortality per nymph; assay type: functional
[4] = Toxicity in RBC assessed as induction of hemolysis at MIC; assay type: cell-based, Erythrocyte; conditions: red blood cells (RBC); read-out: Activity
[5] = Antifungal activity against Pichia membranifaciens after 48 hrs by microbroth dilution method; assay type: functional
[6] = test system: Dysdercus koenigii; assay: Insecticidal activity against 5th instar nymph of Dysdercus koenigii assessed as smaller body size at 20 and 50 ug/nymph; assay type: functional
[7] = test system: Cryptococcus neoformans; assay: Antifungal activity against Cryptococcus neoformans NCIM 3378 after 48 hrs by microbroth dilution method; assay type: functional
[8] = Toxicity in RBC assessed as induction of hemolysis; assay type: cell-based, Erythrocyte; conditions: red blood cells (RBC)
[9] = test system: Cryptococcus neoformans; assay: Antifungal activity against Cryptococcus neoformans NCIM 3541 after 48 hrs by microbroth dilution method; assay type: functional
[10] = test system: Dysdercus koenigii; assay: Insecticidal activity against 5th instar nymph of Dysdercus koenigii assessed as deformed legs at 20 and 50 ug/nymph; assay type: functional
[11] = test system: Pyricularia grisea; assay: Antifungal activity against Magnaporthe grisea after 48 hrs by microbroth dilution method; assay type: functional
[12] = test system: Dysdercus koenigii; assay: Insecticidal activity against 5th instar nymph of Dysdercus koenigii assessed as crumpled wings at 20 and 50 ug/nymph; assay type: functional
[13] = test system: Cryptococcus neoformans; assay: Antifungal activity against Cryptococcus neoformans after 48 hrs by microbroth dilution method; assay type: functional
[14] = test system: Debaryomyces hansenii; assay: Antifungal activity against Debaryomyces hansenii after 48 hrs by microbroth dilution method; assay type: functional
[15] = test system: Drechslera; assay: Antifungal activity against Dreschlera oryzae after 48 hrs by microbroth dilution method; assay type: functional
[16] = test system: Fusarium oxysporum; assay: Antifungal activity against Fusarium oxysporum after 48 hrs by microbroth dilution method; assay type: functional
[17] = test system: Candida albicans; assay: Antifungal activity against Candida albicans NCIM 3471 after 48 hrs by microbroth dilution method; assay type: functional
[18] = test system: Nakaseomyces glabratus; assay: Antifungal activity against Candida glabrata NCIM 3237 after 48 hrs by microbroth dilution method; assay type: functional
[19] = test system: Candida albicans; assay: Antifungal activity against Candida albicans after 48 hrs by microbroth dilution method; assay type: functional
[20] = Toxicity in RBC assessed as induction of hemolysis at 1000 ug/ml; assay type: cell-based, Erythrocyte; conditions: red blood cells (RBC); read-out: Activity

SMILES	GI [1] [µg/mL]	GI [2] [µg/mL]	LD50 [3] [µg]	hemolysis [4] [%]	MIC [5] [µg/mL]	Activity [6]	GI [7] [µg/mL]	HC50 [8] [µg/mL]	GI [9] [µg/mL]	Activity [10]	MIC [11] [µg/mL]	Activity [12]	GI [13] [µg/mL]	MIC [14] [µg/mL]	MIC [15] [µg/mL]	MIC [16] [µg/mL]	GI [17] [µg/mL]	GI [18] [µg/mL]	GI [19] [µg/mL]	hemolysis at 1000 ug/ml [20] [%]
Cc1cc(NC(=O)NC(=O)c2c(F)cccc2F)c(C(C)C)cc1O	>512	16	9.5	< 2	> 512	Active	16	> 1000	<4	Active	> 512	Active	>512	> 512	> 512	> 512	32	16	16	
Cc1cc(NC(=S)NC(=O)c2ccc(F)cc2)c(C(C)C)cc1O	64	64	12.6		512 (≈ 1480 µM)		128	> 1000	32		256 (≈ 739 µM)		16	256 (≈ 739 µM)	256 (≈ 739 µM)	128 (≈ 369 µM)	>512	64	64	17
C[C@@H]1[C@H](O)[C@@H](C)/C=C/C=C/C=C/C=C/C=C/C=C/C=C/[C@H](O[C@@H]2O[C@H](C)[C@@H](O)[C@H](N)[C@@H]2O)C[C@@H]2O[C@](O)(C[C@@H](O)C[C@@H](O)[C@H](O)CC[C@@H](O)C[C@@H](O)CC(=O)O[C@H]1C)C[C@H](O)[C@H]2C(=O)O [AMPHOTERICIN B]								8												
Cc1cc(NC(=S)NC(=O)c2ccccc2)c(C(C)C)cc1O	128	32	23.6	< 2	512 (≈ 1560 µM)		128	> 1000	16		> 512		64	> 512	> 512	> 512	>512	32	32	
Cc1cc(NC(=O)NC(=O)c2ccc(Cl)cc2)c(C(C)C)cc1O	64	32	18	< 2	256 (≈ 738 µM)		32	> 1000	32		512 (≈ 1480 µM)		64	128 (≈ 369 µM)	128 (≈ 369 µM)	256 (≈ 738 µM)	>512	32	32	
Cc1cc(NC(=O)NC(=O)c2ccccc2)c(C(C)C)cc1O	512	256	21.5	< 2	> 512		>512	> 1000	>512		> 512		>512	> 512	> 512	> 512	>512	>512	>512	
Cc1cc(NC(=S)NC(=O)c2c(F)cccc2F)c(C(C)C)cc1O	256	64	11.3	< 2	> 512		128	> 1000	32		> 512		512	128 (≈ 351 µM)	256 (≈ 702 µM)	> 512	>512	64	64	
